Reference: ChEMBL document CHEMBL6134848, “Deuteration Strategy-Inspired Design of Novel Diarylpyrimidine Derivatives as Potent Non-Nucleoside Reverse Transcriptase Inhibitors Featuring Improved Efficacy, Selectivity, and Druggability” (J Med Chem, 2025)

Experiments:
[1] = system: Human immunodeficiency virus 1; test: Antiviral activity against wild-type HIV-1 IIIB infected in human MT4 cells assessed as protection against virus-induced cytopathicity measured after 5 days post-infection by MTT assay; format: functional, organism-based; conditions: Human immunodeficiency virus 1, IIIB, MT4, 120 h
[2] = Cytotoxicity against human MT4 cells assessed as reduction in cell viability by MTT assay; format: toxicity, cell-based
[3] = Selectivity index, ratio of CC50 for cytotoxicity against human MT4 cells to EC50 for antiviral activity against wild-type HIV-1 IIIB infected in human MT4 cells; format: toxicity, cell-based; conditions: read-out: Ratio CC50/EC50
[4] = Metabolic stability in human liver microsomes assessed as half life at 1 uM measured up to 45 mins by LC/MS/MS analysis; format: ADME, Microsome; conditions: microsomes, 0.75 h, 1 µM
[5] = system: Human immunodeficiency virus 1; test: Potency index, ratio of ETR EC50 to test compound EC50 for antiviral activity against wild-type HIV-1 IIIB infected in human MT4 cells assessed as protection against virus-induced cytopathicity measured after 5 days post-infection by MTT assay; format: functional
[6] = system: Human immunodeficiency virus 1; test: Potency index, ratio of EFV EC50 to test compound EC50 for antiviral activity against wild-type HIV-1 IIIB infected in human MT4 cells assessed as protection against virus-induced cytopathicity measured after 5 days post-infection by MTT assay; format: functional
[7] = system: Human immunodeficiency virus 1; test: Potency index, ratio of NVP EC50 to test compound EC50 for antiviral activity against wild-type HIV-1 IIIB infected in human MT4 cells assessed as protection against virus-induced cytopathicity measured after 5 days post-infection by MTT assay; format: functional
Cytochrome P450 1A2 = biological target: T1, Cytochrome P450 1A2 (Homo sapiens, UniProt P05177); test: Inhibition of CYP1A2 in human liver microsomes using phenacetin as substrate incubated for 15 to 45 mins by; format: ADME, Microsome
T1 sequence (P05177 whole entry): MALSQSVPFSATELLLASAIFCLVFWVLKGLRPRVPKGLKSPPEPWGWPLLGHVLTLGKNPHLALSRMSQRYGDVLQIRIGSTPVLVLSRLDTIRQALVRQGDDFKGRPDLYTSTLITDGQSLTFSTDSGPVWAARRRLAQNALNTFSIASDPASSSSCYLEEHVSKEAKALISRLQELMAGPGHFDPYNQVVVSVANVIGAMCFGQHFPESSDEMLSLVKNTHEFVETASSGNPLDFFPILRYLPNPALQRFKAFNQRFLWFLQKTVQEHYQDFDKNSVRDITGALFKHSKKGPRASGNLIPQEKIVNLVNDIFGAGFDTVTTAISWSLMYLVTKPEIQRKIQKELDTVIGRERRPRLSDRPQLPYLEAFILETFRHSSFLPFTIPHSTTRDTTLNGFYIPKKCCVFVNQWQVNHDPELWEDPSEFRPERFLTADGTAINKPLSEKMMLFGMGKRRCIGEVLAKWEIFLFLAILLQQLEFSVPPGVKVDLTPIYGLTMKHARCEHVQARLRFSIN

Cytochrome P450 2B6 = biological target: T2, Cytochrome P450 2B6 (Homo sapiens, UniProt P20813); test: Inhibition of CYP2B6 in human liver microsomes using bupropion as substrate incubated for 15 to 45 mins by; format: ADME, Microsome
T2 sequence (P20813 whole entry): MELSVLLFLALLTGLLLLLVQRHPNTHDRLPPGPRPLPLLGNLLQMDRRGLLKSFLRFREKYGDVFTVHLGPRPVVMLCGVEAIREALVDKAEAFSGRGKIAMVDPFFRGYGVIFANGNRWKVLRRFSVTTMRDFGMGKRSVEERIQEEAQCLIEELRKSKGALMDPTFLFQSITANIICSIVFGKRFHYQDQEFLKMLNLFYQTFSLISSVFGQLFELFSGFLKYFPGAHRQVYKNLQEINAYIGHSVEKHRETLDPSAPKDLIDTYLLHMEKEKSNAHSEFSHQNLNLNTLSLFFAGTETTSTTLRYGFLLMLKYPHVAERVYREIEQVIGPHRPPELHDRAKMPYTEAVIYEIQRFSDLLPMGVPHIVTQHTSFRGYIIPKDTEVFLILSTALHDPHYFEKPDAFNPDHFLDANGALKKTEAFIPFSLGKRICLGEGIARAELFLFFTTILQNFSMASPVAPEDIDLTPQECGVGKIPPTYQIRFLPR

Cytochrome P450 2C9 = Cytochrome P450 2C9 (Homo sapiens, UniProt P11712); test: Inhibition of CYP2C9 in human liver microsomes using diclofenac as substrate incubated for 15 to 45 mins by; format: ADME, Microsome
Sequence of Cytochrome P450 2C9 (P11712 whole entry): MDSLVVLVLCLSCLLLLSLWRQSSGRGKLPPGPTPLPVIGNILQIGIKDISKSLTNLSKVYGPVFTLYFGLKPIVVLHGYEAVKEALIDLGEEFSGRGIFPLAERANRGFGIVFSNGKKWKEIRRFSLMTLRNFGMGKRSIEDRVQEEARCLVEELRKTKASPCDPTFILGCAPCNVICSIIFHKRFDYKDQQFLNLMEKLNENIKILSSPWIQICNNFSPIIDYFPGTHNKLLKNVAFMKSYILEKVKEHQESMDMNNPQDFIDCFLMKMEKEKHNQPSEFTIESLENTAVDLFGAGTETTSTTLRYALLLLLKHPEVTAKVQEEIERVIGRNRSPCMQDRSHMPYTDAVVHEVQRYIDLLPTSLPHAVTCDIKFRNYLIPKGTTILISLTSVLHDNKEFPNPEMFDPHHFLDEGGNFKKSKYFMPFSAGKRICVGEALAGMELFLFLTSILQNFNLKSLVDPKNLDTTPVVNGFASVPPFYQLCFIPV

Cytochrome P450 2D6 = Cytochrome P450 2D6 (Homo sapiens, UniProt P10635); test: Inhibition of CYP2D6 in human liver microsomes using dextromethorphan as substrate incubated for 15 to 45 mins by; format: ADME, Microsome
Sequence of Cytochrome P450 2D6 (P10635 whole entry): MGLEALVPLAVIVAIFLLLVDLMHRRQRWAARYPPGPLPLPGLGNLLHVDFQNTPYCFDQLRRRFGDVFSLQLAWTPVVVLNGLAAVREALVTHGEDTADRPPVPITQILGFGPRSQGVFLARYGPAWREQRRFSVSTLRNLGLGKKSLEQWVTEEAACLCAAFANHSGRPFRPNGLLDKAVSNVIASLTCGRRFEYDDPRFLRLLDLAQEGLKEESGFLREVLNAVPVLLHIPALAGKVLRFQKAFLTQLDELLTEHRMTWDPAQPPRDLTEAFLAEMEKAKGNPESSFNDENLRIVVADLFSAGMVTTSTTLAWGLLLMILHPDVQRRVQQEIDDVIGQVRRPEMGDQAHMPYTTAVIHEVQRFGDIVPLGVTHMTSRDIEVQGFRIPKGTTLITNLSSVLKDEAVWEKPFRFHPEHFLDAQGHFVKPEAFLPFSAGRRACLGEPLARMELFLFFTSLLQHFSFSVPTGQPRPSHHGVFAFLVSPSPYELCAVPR

[8] = Stability in human plasma assessed as compound remaining at 1 uM measured after 1 hr by LC-MS/MS analysis; format: ADME, cell-free; conditions: read-out: Stability
[9] = Stability in human plasma assessed as compound remaining at 1 uM measured after 2 hrs by LC-MS/MS analysis; format: ADME, cell-free; conditions: read-out: Stability
[10] = Stability in human plasma assessed as compound remaining at 1 uM measured after 3 hrs by LC-MS/MS analysis; format: ADME, cell-free; conditions: read-out: Stability
[11] = Stability in human liver microsomes assessed as compound remaining at […] preincubated for 30 mins in ice-water bath followed by incubation at 37 degreeC for 5 mins and further addition of NADPH/UDPGA measured 20.86 mins by LC-MS/MS analysis; format: ADME, Microsome; conditions: time 55.86 min, read-out: Stability
[12] = Protein binding in human plasma at 1 uM incubated for 6 hrs; format: ADME, cell-free; conditions: read-out: PPB (converted)
[13] = Protein binding in human plasma assessed as drug recovery rate at 1 uM incubated for 6 hrs; format: ADME, cell-free; conditions: read-out: Drug recovery
[14] = Half life in Sprague-Dawley rat at 1 mg/kg, iv measured for 0.083 to 24 hrs by LC-MS/MS analysis; format: ADME, organism-based; conditions: in vivo, time 0.083-24 hrs
[15] = AUC (0 to t) in Sprague-Dawley rat at 1 mg/kg, iv measured for 0.083 to 24 hrs by LC-MS/MS analysis; format: ADME, organism-based; conditions: in vivo, time 0.083-24 hrs
[16] = AUC (0 to infinity) in Sprague-Dawley rat at 1 mg/kg, iv measured for 0.083 to 24 hrs by LC-MS/MS analysis; format: ADME, organism-based; conditions: in vivo, time 0.083-24 hrs
[17] = MRT (0 to infinity) in Sprague-Dawley rat at 1 mg/kg, iv measured for 0.083 to 24 hrs by LC-MS/MS analysis; format: ADME, organism-based; conditions: in vivo, time 0.083-24 hrs
[18] = Cmax in Sprague-Dawley rat at 10 mg/kg, po measured for 0.083 to 24 hrs by LC-MS/MS analysis; format: ADME, organism-based; conditions: in vivo, time 0.083-24 hrs
[19] = AUC (0 to t) in Sprague-Dawley rat at 10 mg/kg, po measured for 0.083 to 24 hrs by LC-MS/MS analysis; format: ADME, organism-based; conditions: in vivo, time 0.083-24 hrs
[20] = AUC (0 to infinity) in Sprague-Dawley rat at 10 mg/kg, po measured for 0.083 to 24 hrs by LC-MS/MS analysis; format: ADME, organism-based; conditions: in vivo, time 0.083-24 hrs
[21] = Acute toxicity in ICR mouse assessed as pathological change in heart at 2000 mg/kg, IG measured for 14 days by H and E staining based analysis; format: organism-based; conditions: in vivo, po, 336 h, time 14 day
[22] = Acute toxicity in ICR mouse assessed as pathological change in liver at 2000 mg/kg, IG measured for 14 days by H and E staining based analysis; format: organism-based; conditions: in vivo, po, 336 h, time 14 day

Molecule [2H]C([2H])([2H])c1cc(C#N)cc(C([2H])([2H])[2H])c1Oc1nc(NC2CCN(Cc3ccc(S(N)(=O)=O)cc3)CC2)nc2ccsc12 has an EC50 [1] of 0.00099 µM, a CC50 [2] of over 225 µM and a selectivity ratio [3] of over 227000. The t1/2 [4] was 18.6 min, the “Ratio EC50” value [5] was 3.3 and the “Ratio EC50” value [6] was 5. The “Ratio EC50” value [7] was 256, the IC50 (Cytochrome P450 1A2) was over 10 µM and the IC50 (Cytochrome P450 2B6) was over 10 µM. The IC50 (Cytochrome P450 2C9) was over 10 µM, the IC50 (Cytochrome P450 2D6) was over 10 µM and the remaining at 1 h, 1 µM [8] was 96.5%. It also gave a remaining at 2 h, 1 µM [9] of 92.7%, a remaining at 3 h, 1 µM [10] of 92.2% and a remaining at 0.347667 h [11] of 58.8%. The fraction unbound at 6 h, 1 µM [12] was 0.005, the recovery at 6 h, 1 µM [13] was 79.4% and the half-life [14] was 58.2 min. It also gave an AUC(0-t) [15] of 727 ng·h/mL, an AUC(0-inf) [16] of 729 ng·h/mL and an MRT inf [17] of 50.4 min. For the same molecule, the Cmax [18] was 553 ng/mL, the AUC(0-t) [19] was 1720 ng·h/mL and the AUC(0-inf) [20] was 1800 ng·h/mL. The Activity [21] was “Non-toxic” and the Activity [22] was “Non-toxic”.
